The results in this text go back to patent publication US12202840B2, “Compounds for the treatment or alleviation of disorders associated with Tau aggregates” (AC Immune SA, priority 2018, dated 2025).

As usually defined, the EC50 is the concentration at which the effect is half-maximal.

Molecules are shown by their SMILES. Bounds are passed on as bounds.

Assay [1] concerns the target T1, K18 aggregates (Tau K18 fragment, amino acids 244 to 372 of human Tau441) (Homo sapiens, UniProt P10636).
T1 construct: encompassing amino acids 244 to 372 of the longest isoform (2N4R) of human Tau441; host or cells: bacteria
Briefly: Tau K18 disaggregation assay by ThT. In kind it is biochemical. The settings on record: 2 μM K18 aggregates, 160 to 0.04 μM compound, 30 minutes RT, ThT fluorescence; read-out: TauK18 disaggregation EC50. The protocol: Tau K18 Disaggregation Assay by ThT
The Tau K18 fragment, encompassing amino acids 244 to 372 of the longest isoform (2N4R) of human Tau441, was expressed in bacteria and purified or bought from SignalChem. For the K18 disaggregation assay by ThT, 35 μM of recombinant K18 in PBS were aggregated for 24 hours at 37° C. in presence of 50 μM of heparin (Sigma-Aldrich) and 10 mM of DTT (Sigma-Aldrich) under shaking at 750 RPM. Compounds were dissolved in anhydrous dimethyl sulfoxide (DMSO, Sigma-Aldrich) to reach a concentration of 10 mM. K18 aggregates and serial dilutions of compounds were mixed together in PBS (volume 50 μL) to a final concentration of 2 μM of K18 aggregates and from 160 to 0.04 μM of compounds. The mixture was incubated for 30 minutes at room temperature (RT), then 40 μL of this mixture were transferred into a black 384-well plate assay (Perkin-Elmer) and mixed with 10 μL of 100 μM ThT in 250 mM glycine (both from Sigma-Aldrich) in PBS. Fluorescence (relative fluorescence units; RFU) was measured in monoplicate or duplicate on a Tecan reader (excitation: 440 nm; emission: 485 nm). Percentage of K18 disaggregation was then calculated and half maximal effective concentration (EC50) was determined using GraphPad Prism version 5 (GraphPad Software) assuming a one-binding site fitting model.

The target of assay [2] is T2, flTau aggregates (longest isoform of human Tau, 2N4R; 441 amino acids) (Homo sapiens, UniProt P10636).
T2 construct: 35 μM of recombinant full-length (fl)Tau in PBS were aggregated for 24 hours; made in house; host or cells: bacteria
Briefly: Full-length Tau (flTau) disaggregation assay by Thioflavin T (ThT). The settings on record: 2 μM flTau aggregates, 160 to 0.04 μM compound, 30 minutes RT, ThT fluorescence. In kind it is biochemical. The protocol:
Biological Assay Description Full-Length Tau (flTau) Disaggregation Assay by Thioflavin T (ThT)
The longest isoform of human Tau (2N4R; 441 amino acids) was expressed in bacteria and purified. For the Tau disaggregation assay by ThT, 35 μM of recombinant full-length (fl)Tau in PBS were aggregated for 24 hours at 37° C. in presence of 50 μM of heparin (Sigma-Aldrich) and 10 mM of DTT (Sigma-Aldrich) under shaking at 750 RPM. Compounds were dissolved in anhydrous dimethyl sulfoxide (DMSO, Sigma-Aldrich) to reach a concentration of 10 mM.
flTau aggregates and serial dilutions of compounds were mixed together in PBS (volume 50 μL) to a final concentration of 2 μM of flTau aggregates and from 160 to 0.04 μM of compounds. The mixture was incubated for 30 minutes at room temperature (RT), then 40 μL of this mixture were transferred into a black 384-well plate assay (Perkin-Elmer) and mixed with 10 μL of 100 μM ThT in 250 mM glycine (both from Sigma-Aldrich) in PBS. Fluorescence (relative fluorescence units; RFU) was measured in monoplicate or duplicate on a Tecan reader (excitation: 440 nm; emission: 485 nm). Percentage of flTau disaggregation was then calculated and the halfmaximal effective concentration (EC50) was determined using GraphPad Prism version 5 (GraphPad Software) assuming a one-binding site fitting model.

Assay [3] deals with human neuroblastoma cell line overexpressing the full-length form of human Tau carrying the P301L mutation. The assay can be described thus: Reduction of intracellular Tau aggregation (AlphaLISA). In kind it is cell-based. As to conditions: compound at 5 μM, 24 h; aggregated Tau normalized to total Tau, relative to DMSO-treated cells. The protocol:
Reduction of Intracellular Tau Aggregation
A human neuroblastoma cell line overexpressing the full-length form of human Tau carrying the P301L mutation was cultured in complete medium [DMEM-F12 4.5 g/L Glutamax (Invitrogen), 15% FBS (Biochrom), 1% Peni/Strep (Invitrogen) supplemented with 2.5 μg/ml of G418 (Sigma-Aldrich) selection antibiotic]. The day before the experiment 5×10^5 cells/well were plated in a 6 well plate in 3 mL of complete medium. The next day, cells were incubated with DMSO or a compound of the present invention at a 5 μM for additional 24 h at 37° C. After incubation, cells were trypsinized, resupsended in 100 μl of homogenization buffer [25 mM Tris-HCl pH 7.4, 150 mM NaCl, 1 mM EDTA, 1 mM EGTA containing phosphatase inhibitors (30 mM NaF, 0.2 mM Na3VO4, 1 nM Okadaic acid, 1 mM PMSF, 5 mM Na4P2O7) and protease inhibitor cocktail (Complete™, Roche)], and then physically lysed with three rapid cycles of freezing and thawing. Samples were then directly tested in the AlphaLISA assay.
Phosphorylated, aggregated, and total Tau were quantified by AlphaLisa using the following antibody pairs: • HT7-Acceptor beads+biotin (BT)-Tau13-Donor beads: Total Tau • HT7-Acceptor beads+biotin (BT)-HT7-Donor beads: Aggregated human Tau
The Tau13 (Abcam) was biotinylated using EZ-Link® NHS-PEO Solid Phase biotinylation kit (Thermo Scientific), while the HT7-biotin was from a commercial source (Thermo Scientific).
For each antibody pairs the concentration of acceptor beads and biotinylated antibodies was optimized. All samples were first tested in a dilution series in PBS in order to identify the linear range and optimal dilution for each sample and assay. For the final protocol, the following reagents were added in a 384-well white OptiPlate (Perkin Elmer): • 5 μL of test diluted sample • 20 μL of the mixture biotin-mAb acceptor beads at the following final concentrations: • HT7-BT at 1.25 nM in combination with HT7-Acc beads at 10 μg/ml • Tau13-BT at 5 nM in combination with HT7-Acc beads at 2.5 μg/ml
After incubation of this mixture at room temperature for 1 h, 25 μL of Streptavidin Donor beads (Perkin Elmer) at 25 μg/mL were added in the dark. Plates were analyzed after 30 min incubation using the EnSpire Alpha instrument and EnSpire Workstation version 3.00.
Data for aggregated Tau were normalized to total Tau and then expressed as percentage of the DMSO-treated cells.
On the technique in general: In Alpha technology, singlet oxygen from a donor bead excites a nearby acceptor bead.

T1 sequence (P10636 561-689): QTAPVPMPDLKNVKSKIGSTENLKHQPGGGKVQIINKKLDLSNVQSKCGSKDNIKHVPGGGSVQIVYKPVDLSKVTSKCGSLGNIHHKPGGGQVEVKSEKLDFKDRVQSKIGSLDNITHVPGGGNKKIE
T2 sequence (P10636 1-441 isoform P10636-8): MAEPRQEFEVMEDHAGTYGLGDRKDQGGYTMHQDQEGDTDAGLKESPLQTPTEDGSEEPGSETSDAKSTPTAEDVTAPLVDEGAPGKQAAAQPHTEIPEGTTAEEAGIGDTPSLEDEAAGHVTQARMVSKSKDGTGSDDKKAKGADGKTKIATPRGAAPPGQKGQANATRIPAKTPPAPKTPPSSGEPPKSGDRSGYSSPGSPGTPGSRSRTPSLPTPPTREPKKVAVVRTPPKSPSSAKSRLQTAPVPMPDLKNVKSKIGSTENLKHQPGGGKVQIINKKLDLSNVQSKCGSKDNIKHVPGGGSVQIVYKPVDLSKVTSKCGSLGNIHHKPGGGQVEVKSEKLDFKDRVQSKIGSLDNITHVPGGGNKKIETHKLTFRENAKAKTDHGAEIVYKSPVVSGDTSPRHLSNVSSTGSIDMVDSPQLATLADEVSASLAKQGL

Turning to `CN(C)[C@H]1CCc2oc3nc(Nc4ccc5oc(N6CCOCC6)nc5c4)ccc3c2C1` [Example 35], the EC50 in assay [1] is under 10 µM. The same measure, in the same setting: next, `CN(C)C1CCc2oc3nc(Nc4ccc5sc(N6CCOCC6)nc5c4)ccc3c2C1` (stereo not drawn) [Example 5]: under 10 µM. Still for that read-out and setting: the figure for `CN(C)C1CCc2c(c3ccc(Nc4ccc5sc(N6CCOCC6)nc5c4)nc3n2C)C1` (stereo not drawn) [Example 9] is under 10 µM; for `CN(C)C1CCc2oc3nc(Nc4ccc5nc(N6CCOCC6)sc5c4)ccc3c2C1` (stereo not drawn) [Example 20] it is 25 to 50 µM; for `CN(C)[C@@H]1CCc2oc3nc(Nc4ccc5oc(N6CCOCC6)nc5c4)ccc3c2C1` [Example 36] it is 10 to 25 µM. With `CN(C)C1CCc2[nH]c3nc(Nc4ccc5nc(N6CCOCC6)sc5c4)ccc3c2C1` (stereo not drawn) [Example 29], the EC50 in assay [2] was under 10 µM. In assay [2], `CN(C)C1CCc2[nH]c3nc(Nc4ccc5nc(N6CCOCC6)oc5c4)ccc3c2C1` (stereo not drawn) [Example 32] yielded an EC50 of 10 to 25 µM.

For the compound `CC(C)N1CCc2oc3nc(Nc4ccc5sc(N6CCOCC6)nc5c4)ccc3c2C1` [Example 8], in assay [1], the concentration giving a half-maximal response (EC50) was 25 to 50 µM. For the compound `CN(C)[C@H]1CCc2c(c3ccc(Nc4ccc5sc(N6CCOCC6)nc5c4)nc3n2C)C1` [Example 11], the EC50 in assay [2] and in assay [1] was under 10 µM in each case.

Turning to `CN(C)[C@H]1CCc2oc3nc(Nc4ccc5nc(N6CCOCC6)sc5c4)ccc3c2C1` [Example 21], the EC50 in assay [1] is 10 to 25 µM. On the same count and under the same terms, the figure for `CN(C)[C@@H]1CCc2oc3nc(Nc4ccc5sc(N6CCOCC6)nc5c4)ccc3c2C1` [Example 33] is under 10 µM; for `CN(C)C1CCc2oc3nc(Nc4ccc5nc(N6CCOCC6)oc5c4)ccc3c2C1` (stereo not drawn) [Example 28] it is 10 to 25 µM.

As to `CN(C)[C@@H]1CCc2c(c3ccc(Nc4ccc5nc(N6CCC[C@@H](F)C6)oc5c4)nc3n2C)C1` [Example 19], the EC50 in assay [2] and in assay [1] was 10 to 25 µM throughout.

As for `CN(C)[C@@H]1CCc2c(c3ccc(Nc4ccc5nc(N6CCOCC6)oc5c4)nc3n2C)C1` [Example 17], in assay [2], the EC50 fell in the range of 25 to 50 µM. Turning to `CN(C)[C@@H]1CCc2c(c3ccc(Nc4ccc5oc(N6CCOCC6)nc5c4)nc3n2C)C1` [Example 18], the results for the EC50 in assay [2] and in assay [1] were 25 to 50 µM and 10 to 25 µM, respectively. With `CN(C)C1CCc2c(c3ccc(Nc4ccc5nc(N6CCOCC6)sc5c4)nc3n2C)C1` (stereo not drawn) [Example 10], the EC50 in assay [2] and in assay [1] was under 10 µM throughout. Consider `CN(C)C1CCc2c(c3ccc(Nc4ccc5sc(N6CCC[C@H](F)C6)nc5c4)nc3n2C)C1` (stereo partly drawn) [Example 15], for which the EC50 in assay [2] and in assay [1] was under 10 µM in each case. As for `CN(C)[C@@H]1CCc2oc3nc(Nc4ccc5nc(N6CCOCC6)sc5c4)ccc3c2C1` [Example 22], the EC50 in assay [1] was in the range of 25 to 50 µM. For `CN(C)C1CCc2oc3nc(Nc4ccc5oc(N6CCOCC6)nc5c4)ccc3c2C1` (stereo not drawn) [Example 31], the EC50 in assay [2] was under 10 µM; in assay [1], 10 to 25 µM.

Take `CN(C)C1CCc2c(c3ccc(Nc4ccc5sc(N6CCC(F)CC6)nc5c4)nc3n2C)C1` (stereo not drawn) [Example 3]: the EC50 in assay [2] and in assay [1] was under 10 µM in each case. The “% Reduction of intracellular Tau aggregation” value in assay [3] is given as “++ (++ %50 < x < 25)”. Turning to `CC(C)N1CCc2oc3nc(Nc4ccc5nc(N6CCOCC6)sc5c4)ccc3c2C1` [Example 7], the EC50 in assay [1] was under 10 µM. Consider `CC(C)N1CCc2c(c3ccc(Nc4ccc5sc(N6CCC(F)CC6)nc5c4)nc3n2C)C1` [Example 6], for which the EC50 in assay [2] and in assay [1] was under 10 µM each time.

Consider `CN(C)C1CCc2c(c3ccc(Nc4ccc5nc(N6CCC(F)CC6)sc5c4)nc3n2C)C1` (stereo not drawn) [Example 14], for which the EC50 in assay [2] and in assay [1] was 10 to 25 µM in each case.

On to `CN(C)[C@H]1CCc2c(c3ccc(Nc4ccc5nc(N6CCOCC6)sc5c4)nc3n2C)C1` [Example 13], for which the EC50 in assay [2] and in assay [1] was under 10 µM each time. With `CN(C)[C@H]1CCc2oc3nc(Nc4ccc5sc(N6CCOCC6)nc5c4)ccc3c2C1` [Example 34], the EC50 in assay [1] is under 10 µM.

As to `CN(C)C1CCc2c(c3ccc(Nc4ccc5sc(N6CCC[C@@H](F)C6)nc5c4)nc3n2C)C1` (stereo partly drawn) [Example 16], the EC50 in assay [2] and in assay [1] was under 10 µM in each case. In the case of `CN(C)C1CCc2[nH]c3nc(Nc4ccc5oc(N6CCOCC6)nc5c4)ccc3c2C1` (stereo not drawn) [Example 30], in assay [2], the EC50 is under 10 µM.
